Assays:
[1] = test system: non-transformed murine OP9 bone marrow stromal cells and primary murine embryonic fibroblasts (MEFs); experiment: Sensitivity of non-transformed cells versus cancer cell lines; type: cell-based; settings: OP9 and primary MEFs versus DLD-1, LS180, SW48, SW480, SW620, MDA-MB-231, PANC-1
Experimental: Consistent with the bioenergetic mechanism described supra, cells with a higher anabolic rate should be more sensitive to sphingolipid-like compounds. In exemplary experiments testing this mechanism, murine FL5.12 cells with different anabolic rates were treated with SH-BC-893. The anabolic rate of FL5.12 cells can be titrated by modulating the levels of their required growth factor, IL-3; comparing FL5.12 cells grown in high and low IL-3 allows the impact of elevated growth factor signaling and anabolism to be evaluated in a constant genetic background. High concentrations of IL-3 drive aerobic glycolysis and a rapid doubling time (12 h). Reducing IL-3 levels slows proliferation and increases oxidative phosphorylation without compromising cell viability (FIGS. 53A and 53B). […] Many of these cancer cell lines carry activating mutations in Ras. […]
Cell culture and reagents. […] Cell viability was measured by vital dye exclusion using either propidium iodide or DAPI at 1 μg/ml. Analysis of cell surface 4F2hc levels with PE-conjugated anti-CD98 was restricted to viable cells as determined by DAPI exclusion. Anchorage-independent growth of SW620 cells was measured in DMEM-10 containing 0.35% low melt agarose with a 0.5% agarose bottom layer. […]

[2] = Blood chemistry of pDKO mice; type: in vivo; settings: for Alkaline Phosphatase: Means ± SEM, n = 4, in U/L (unit assumed); for Albumin / Globulin / Total Protein: in g/dL (unit assumed); for Blood Urea Nitrogen / Ca^2+ / Cholesterol / P / Total Bilirubin: in mg/dL (unit assumed); for HCO^3−: in mmol/L (unit assumed); for Creatine: unit assumed
Experimental: In vivo studies. Experiments conducted in mice were performed in accordance with the Institutional Animal Care and Use Committee of University of California, Irvine following a power analysis conducted in consultation with the Biostatistics Shared Resource of Chao Family Comprehensive Cancer Center at UCI. Xenografts were produced by injecting 5 million cells subcutaneously in the flank of 10-16 week-old male or female NSG mice. Prostate isografts were produced in the same manner but in male 6-8 wk old C57BL/6 mice. Once tumors reached 100 mm^3, SH-BC-893 was administered by intraperitoneal (i.p.) injection or oral gavage as indicated. Tumor volume was calculated using the formula, volume (mm^3)=length [mm]×(width [mm])^2×0.52; BLI was measured using an IVIS imaging system (Xenogen). To generate pDKO mice on the C57BL6 background, Pten^flox mice (stock No. 0045597) and p53^flox mice (stock No. 008462) were obtained from the Jackson Laboratory and PB-Cre4 mice (strain #01XF5) were obtained from the NCI-Frederick Mouse Repository. Age-matched cohorts of pDKO males were generated by in vitro fertilization executed with the assistance of the Transgenic Mouse Facility at UC Irvine. Treatment was begun at 6-7 wks of age. […] Tumor samples were processed and imaged by the Pathology Research Services Core Facility at UC Irvine. Blood chemistry was analyzed by IDEXX BioResearch and complete blood counts were performed using a Hemavet hematology system.

[3] = 60 mg/kg, at sacrifice, in U/L (unit assumed)
[4] = 120 mg/kg, at sacrifice, in U/L (unit assumed)

## CCCCCCCCc1ccc([C@H]2CCN[C@@H]2CO)cc1.Cl [Compound 5, (2S,3R)-2-(hydroxymethyl)-3-(4-octylphenyl)Pyrrolidinium chloride]
[1]
  sensitivity compared with human cancer cell lines: less sensitive
[2]; 60 mg/kg, at sacrifice
  Glucose: 282 ± 24^
  Alkaline Phosphatase: 77 ± 7.8
  Albumin: 3 ± 0.2
  Globulin: 2 ± 0.18
  Total Protein: 5 ± 0.4
  Blood Urea Nitrogen: 19 ± 1.1
  Ca^2+: 10 ± 0.7
  Cholesterol: 134 ± 15.8
  P: 11 ± 1.0
  Total Bilirubin: 0.1 ± 0
  HCO^3−: 20 ± 3.2
  Creatine: < 0.2 mg/dL
[2]; [3]
  Creatine Phosphokinase: 5,340 ± 2366
  Serum Glutamic Oxaloacetic Transaminase (Asp aminotransferase): 640 ± 136
  Serum Glutamic-Pyruvic Transaminase (Ala aminotransferase): 78 ± 25
[2]; 120 mg/kg, at sacrifice
  Glucose: 307 ± 28^
  Alkaline Phosphatase: 83 ± 6.2
  Albumin: 3 ± 0.1
  Globulin: 2 ± 0.03
  Total Protein: 6 ± 0.2
  Blood Urea Nitrogen: 23 ± 1.5
  Ca^2+: 10 ± 0.1
  Cholesterol: 107 ± 7.5
  P: 13 ± 0.1
  Total Bilirubin: 0.2 ± 0.03
  HCO^3−: 17 ± 2.8
  Creatine: < 0.2 mg/dL
[2]; [4]
  Serum Glutamic Oxaloacetic Transaminase (Asp aminotransferase): 907 ± 171
  Serum Glutamic-Pyruvic Transaminase (Ala aminotransferase): 91 ± 17.2
[2]; anti-neoplastic dose
  toxicity to the liver or kidneys by blood chemistry at sacrifice: not toxic to the liver or kidneys

— patent US10995068B2, “Synthetic sphingolipid-like molecules, drugs, methods of their synthesis and methods of treatment” (The Regents of the University of California, priority 2015, dated 2021)
